Test results published in ChEMBL document CHEMBL1139208, “An efficient and stereoselective dearylation of asarinin and sesamin tetrahydrofurofuran lignans to acuminatolide by methyltrioxorhenium/H(2)O(2) and UHP systems” (J Nat Prod, 2007).

Each compound was assayed on NIH3T3 (assay: Cytotoxicity against murine 3T3 cells by MTT assay). Settings: Mus musculus.
Format: cell-based

| SMILES | IC50 |
| --- | --- |
| O=C(O)[C@H]1CO[C@@H](c2ccc3c(c2)OCO3)[C@H]1CO | 3000 nM |
| O=C1OC[C@H]2[C@@H]1CO[C@H]2c1ccc2c(c1)OCO2 | > 20000 nM |
| O=C1OC[C@H]2[C@@H]1CO[C@@H]2c1ccc2c(c1)OCO2 | > 20000 nM |
| c1cc2c(cc1[C@H]1OC[C@H]3[C@@H]1CO[C@H]3c1ccc3c(c1)OCO3)OCO2 [ASARININ] | 200 nM |
